# Results as given in patent US20230257396A1, “MACROCYCLES AND THEIR USE” (BLOSSOMHILL THERAPEUTICS, INC., priority 2020, published 2023).
# Assays:
# Assay in all cases: KINOMEscan kinase binding assay (Eurofins/DiscoveRx), % Ctrl
# kinases [1] = molecular target: T1, kinases (Homo sapiens, UniProt P36888, D835V)
# T1 construct: purchased Eurofins/DiscoveRx; host or cells: E. coli BL21-derived host (T7 phage display) for most kinases; HEK-293 for the rest
# T1 sequence (P36888 27-993 D835V): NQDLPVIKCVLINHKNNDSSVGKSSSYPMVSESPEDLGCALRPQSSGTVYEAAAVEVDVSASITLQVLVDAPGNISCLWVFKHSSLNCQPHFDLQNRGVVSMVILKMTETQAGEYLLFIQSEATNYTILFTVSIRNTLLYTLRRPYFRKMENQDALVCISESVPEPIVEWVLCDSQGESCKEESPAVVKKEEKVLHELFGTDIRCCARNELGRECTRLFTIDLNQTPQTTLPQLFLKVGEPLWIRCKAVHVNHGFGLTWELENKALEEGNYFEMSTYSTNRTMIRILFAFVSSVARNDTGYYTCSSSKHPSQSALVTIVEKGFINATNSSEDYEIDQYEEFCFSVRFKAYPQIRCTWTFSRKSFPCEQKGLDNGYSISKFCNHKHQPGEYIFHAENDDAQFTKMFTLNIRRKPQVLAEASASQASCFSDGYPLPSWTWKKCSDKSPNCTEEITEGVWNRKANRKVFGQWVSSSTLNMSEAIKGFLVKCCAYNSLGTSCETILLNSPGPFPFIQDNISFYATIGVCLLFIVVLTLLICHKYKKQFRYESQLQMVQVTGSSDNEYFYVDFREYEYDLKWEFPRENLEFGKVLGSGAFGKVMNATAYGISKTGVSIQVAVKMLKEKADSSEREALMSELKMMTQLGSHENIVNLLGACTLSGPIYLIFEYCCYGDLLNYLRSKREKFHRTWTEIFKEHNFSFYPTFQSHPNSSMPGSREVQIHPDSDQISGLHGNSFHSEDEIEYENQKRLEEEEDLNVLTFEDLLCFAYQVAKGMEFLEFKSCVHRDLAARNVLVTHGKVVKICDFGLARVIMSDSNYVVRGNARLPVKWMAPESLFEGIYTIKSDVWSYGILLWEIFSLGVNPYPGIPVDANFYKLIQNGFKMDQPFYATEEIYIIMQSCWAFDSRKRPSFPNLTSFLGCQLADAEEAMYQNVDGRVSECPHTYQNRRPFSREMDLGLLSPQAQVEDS
# Description: (§1) Kinase binding assays were performed at Eurofins/DiscoveRx using the general KINOMEscan Protocol (Fabian, M. A. et al., “A small molecule-kinase interaction map for clinical kinase inhibitors,” Nat. Biotechnol. 2005, 23(3):329-36). For most assays, kinase-tagged T7 phage strains were prepared in an E. coli host derived from the BL21 strain. E. coli were grown to log-phase and infected with T7 phage and incubated with shaking at 32° C. until lysis. The lysates were centrifuged and filtered to remove cell debris. The remaining kinases were produced in HEK-293 cells and subsequently tagged with DNA for qPCR detection. Streptavidin-coated magnetic beads were treated with biotinylated small molecule ligands for 30 minutes at room temperature to generate affinity resins for kinase assays. The liganded beads were blocked with excess biotin and washed with blocking buffer (SeaBlock (Pierce), 1% BSA, 0.05% Tween 20, 1 mM DTT) to remove unbound ligand and to reduce nonspecific binding. Binding reactions were assembled by combining kinases, liganded affinity beads, and test compounds in 1×binding buffer (20% SeaBlock, 0.17×PBS, 0.05% Tween 20, 6 mM DTT). All reactions were performed in polystyrene 96-well plates in a final volume of 0.135 mL. The assay plates were incubated at room temperature with shaking for 1 hour and the affinity beads were washed with washbuffer (1×PBS, 0.05% Tween 20). The beads were then re-suspended in elution buffer (1× PBS, 0.05% Tween 20, 0.5 μM non-biotinylated affinity ligand) and incubated at room temperature with shaking for 30 minutes. The kinase concentration in the eluates was measured by qPCR. Results for compounds tested in this assay at a given concentration are reported as “% Ctrl”, where lower numbers indicate stronger binding in the matrix.
# (§2) (test compound signal-positive control signal)/(negative control signal-positive control signal) X100
# kinases [2] = molecular target: T2, kinases (Homo sapiens, UniProt P00533, DEL746-750)
# T2 construct: purchased Eurofins/DiscoveRx; host or cells: E. coli BL21-derived host (T7 phage display) for most kinases; HEK-293 for the rest
# Description: as §1, §2
# kinases [3] = molecular target: T3, kinases (Homo sapiens, UniProt P00533, L858R/T790M)
# T3 construct: purchased Eurofins/DiscoveRx; host or cells: E. coli BL21-derived host (T7 phage display) for most kinases; HEK-293 for the rest
# Description: as §1, §2
# kinases [4] = molecular target: T4, kinases (Homo sapiens, UniProt P07949)
# T4 construct: purchased Eurofins/DiscoveRx; host or cells: E. coli BL21-derived host (T7 phage display) for most kinases; HEK-293 for the rest
# T4 sequence (P07949 29-1114): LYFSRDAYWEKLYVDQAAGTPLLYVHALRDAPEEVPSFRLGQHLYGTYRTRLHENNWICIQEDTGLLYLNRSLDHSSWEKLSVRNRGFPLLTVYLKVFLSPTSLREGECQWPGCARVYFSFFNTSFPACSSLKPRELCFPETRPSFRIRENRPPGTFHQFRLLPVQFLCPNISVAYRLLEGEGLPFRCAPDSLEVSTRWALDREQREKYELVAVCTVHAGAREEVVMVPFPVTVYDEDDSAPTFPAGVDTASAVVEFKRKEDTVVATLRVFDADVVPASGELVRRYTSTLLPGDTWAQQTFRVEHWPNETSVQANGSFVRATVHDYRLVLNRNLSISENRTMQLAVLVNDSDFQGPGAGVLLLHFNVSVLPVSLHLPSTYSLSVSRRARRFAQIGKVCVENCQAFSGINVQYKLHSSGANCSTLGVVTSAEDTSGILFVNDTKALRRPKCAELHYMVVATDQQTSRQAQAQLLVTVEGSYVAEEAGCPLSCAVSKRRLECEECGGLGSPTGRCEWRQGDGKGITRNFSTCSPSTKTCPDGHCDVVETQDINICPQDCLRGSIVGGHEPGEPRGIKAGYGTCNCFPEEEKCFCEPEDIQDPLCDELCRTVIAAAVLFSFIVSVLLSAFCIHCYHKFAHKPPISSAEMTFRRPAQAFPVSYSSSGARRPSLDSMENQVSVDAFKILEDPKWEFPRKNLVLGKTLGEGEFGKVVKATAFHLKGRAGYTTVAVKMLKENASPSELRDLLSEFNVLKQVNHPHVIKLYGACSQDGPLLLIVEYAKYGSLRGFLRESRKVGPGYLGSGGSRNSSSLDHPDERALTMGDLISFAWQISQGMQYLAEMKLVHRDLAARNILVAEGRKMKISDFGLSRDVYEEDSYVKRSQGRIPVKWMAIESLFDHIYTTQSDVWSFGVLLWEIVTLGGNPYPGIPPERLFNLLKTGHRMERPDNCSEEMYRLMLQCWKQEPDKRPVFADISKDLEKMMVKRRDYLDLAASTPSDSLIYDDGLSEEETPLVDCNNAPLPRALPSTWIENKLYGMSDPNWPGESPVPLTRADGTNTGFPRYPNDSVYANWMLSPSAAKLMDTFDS
# Description: as §1, §2
# kinases [5] = molecular target: T5, kinases (Homo sapiens, UniProt P00519, F317I)
# T5 construct: purchased Eurofins/DiscoveRx; host or cells: E. coli BL21-derived host (T7 phage display) for most kinases; HEK-293 for the rest
# Description: as §1, §2
# kinases [6] = molecular target: T6, kinases (Homo sapiens, UniProt P00533, G719C)
# T6 construct: purchased Eurofins/DiscoveRx; host or cells: E. coli BL21-derived host (T7 phage display) for most kinases; HEK-293 for the rest
# Description: as §1, §2
# kinases [7] = molecular target: T7, kinases (Homo sapiens, UniProt P00519)
# T7 construct: purchased Eurofins/DiscoveRx; host or cells: E. coli BL21-derived host (T7 phage display) for most kinases; HEK-293 for the rest
# Description: as §1, §2
# kinases [8] = molecular target: T8, kinases (Homo sapiens, UniProt P00533, L858R)
# T8 construct: purchased Eurofins/DiscoveRx; host or cells: E. coli BL21-derived host (T7 phage display) for most kinases; HEK-293 for the rest
# Description: as §1, §2
# kinases [9] = molecular target: T9, kinases (Homo sapiens, UniProt P10721, D816V)
# T9 construct: purchased Eurofins/DiscoveRx; host or cells: E. coli BL21-derived host (T7 phage display) for most kinases; HEK-293 for the rest
# T9 sequence (P10721 26-976 D816V): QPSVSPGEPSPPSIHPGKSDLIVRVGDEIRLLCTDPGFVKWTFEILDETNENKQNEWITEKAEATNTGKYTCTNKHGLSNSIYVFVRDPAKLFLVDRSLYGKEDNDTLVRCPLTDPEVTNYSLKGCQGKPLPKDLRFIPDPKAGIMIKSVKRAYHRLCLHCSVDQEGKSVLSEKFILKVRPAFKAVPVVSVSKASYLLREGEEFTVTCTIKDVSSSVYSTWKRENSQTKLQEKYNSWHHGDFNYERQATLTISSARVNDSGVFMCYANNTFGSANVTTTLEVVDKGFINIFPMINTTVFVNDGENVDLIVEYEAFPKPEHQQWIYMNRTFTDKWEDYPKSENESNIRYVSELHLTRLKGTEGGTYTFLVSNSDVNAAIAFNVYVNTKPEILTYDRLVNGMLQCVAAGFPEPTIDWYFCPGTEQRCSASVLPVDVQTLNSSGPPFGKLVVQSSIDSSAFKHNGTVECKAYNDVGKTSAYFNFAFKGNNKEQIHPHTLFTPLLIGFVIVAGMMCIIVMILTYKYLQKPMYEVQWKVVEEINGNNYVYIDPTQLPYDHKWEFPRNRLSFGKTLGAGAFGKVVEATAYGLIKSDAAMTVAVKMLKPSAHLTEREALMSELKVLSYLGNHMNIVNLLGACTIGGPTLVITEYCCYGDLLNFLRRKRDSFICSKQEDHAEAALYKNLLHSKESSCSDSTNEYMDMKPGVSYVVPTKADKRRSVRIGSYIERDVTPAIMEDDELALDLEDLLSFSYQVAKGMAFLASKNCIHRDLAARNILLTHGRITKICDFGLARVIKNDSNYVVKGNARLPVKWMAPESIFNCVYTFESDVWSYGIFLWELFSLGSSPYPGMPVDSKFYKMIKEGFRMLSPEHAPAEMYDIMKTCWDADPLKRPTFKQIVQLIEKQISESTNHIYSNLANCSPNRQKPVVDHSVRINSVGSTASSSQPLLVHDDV
# Description: as §1, §2
# kinases [10] = molecular target: T10, kinases (Homo sapiens, UniProt P10721, V559D/V654A)
# T10 construct: purchased Eurofins/DiscoveRx; host or cells: E. coli BL21-derived host (T7 phage display) for most kinases; HEK-293 for the rest
# T10 sequence (P10721 26-976 V559D/V654A): as the sequence (P10721 26-976 D816V) above, with V534D, V629A, V791D counted along it
# Description: as §1, §2
# kinases [11] = molecular target: T11, kinases (Homo sapiens, UniProt P00519, Q252H)
# T11 construct: purchased Eurofins/DiscoveRx; host or cells: E. coli BL21-derived host (T7 phage display) for most kinases; HEK-293 for the rest
# Description: as §1, §2
# [12] = 1 μM; ABL1(F317I)-nonphosphorylated
# [13] = 1 μM; ABL1(F317I)-phosphorylated
# [14] = 1 μM; ABL1(Q252H)-nonphosphorylated
# [15] = 1 μM; ABL1(Q252H)-phosphorylated
"% Ctrl, FLT3(D835V) (kinases [1]; 1 μM; FLT3(D835V))","% Ctrl, EGFR(E746-A750del) (kinases [2]; 1 μM; EGFR(E746-A750del))","% Ctrl, EGFR(L858R, T790M) (kinases [3]; 1 μM; EGFR(L858R, T790M))","% Ctrl, RET (kinases [4]; 1 μM; RET)","% Ctrl, ABL1(F317I)-nonphosphorylated (kinases [5]; [12])","% Ctrl, ABL1(F317I)-phosphorylated (kinases [5]; [13])","% Ctrl, EGFR(G719C) (kinases [6]; 1 μM; EGFR(G719C))","% Ctrl, ABL1-nonphosphorylated (kinases [7]; 1 μM; ABL1-nonphosphorylated)","% Ctrl, ABL1-phosphorylated (kinases [7]; 1 μM; ABL1-phosphorylated)","% Ctrl, EGFR(L858R) (kinases [8]; 1 μM; EGFR(L858R))","% Ctrl, KIT(D816V) (kinases [9]; 1 μM; KIT(D816V))","% Ctrl, KIT(V559D, V654A) (kinases [10]; 1 μM; KIT(V559D, V654A))","% Ctrl, ABL1(Q252H)-nonphosphorylated (kinases [11]; [14])","% Ctrl, ABL1(Q252H)-phosphorylated (kinases [11]; [15])",SMILES,other results
0.15 % Ctrl,13 % Ctrl,2.3 % Ctrl,2 % Ctrl,2.6 % Ctrl,5.5 % Ctrl,90 % Ctrl,0.05 % Ctrl,0 % Ctrl,47 % Ctrl,48 % Ctrl,89 % Ctrl,0 % Ctrl,0.05 % Ctrl,"Cc1cc2c([nH]1)/C=C1\C(=O)Nc3ccc(cc31)-c1c(C)n[nH]c1CNCCN(C)C2=O [Ex. 127, [3a(4)Z]-6,9,16-trimethyl-9,10,11,12,13,14-hexahydro-1,17-(ethanediylidene)pyrazolo[4,3-m]dipyrrolo[3,2-f:3′,4′-i][1,4]diazacyclopentadecine-3,8(2H,5H)-dione]",
,,,,,,,,,,,,,,"Cc1cc2c([nH]1)/C=C1\C(=O)Nc3cnc(cc31)-c1cn[nH]c1CNCCN(C)C2=O [Ex. 55, [3a(4)Z]-6,9-dimethyl-9,10,11,12,13,14-hexahydro-17,1-(azenometheno)pyrazolo[4,3-m]dipyrrolo[3,2-f:3′,4′-i][1,4]diazacyclopentadecine-3,8(2,5H)-dione]","% Ctrl, FLT3(D835V) (kinases [1]; target FLT3(D835V); 1 μM): 1.1 % Ctrl; % Ctrl, EGFR(E746-A750del) (kinases [2]; target EGFR(E746-A750del); 1 μM): 74 % Ctrl; % Ctrl, EGFR(L858R, T790M) (kinases [3]; target EGFR(L858R, T790M); 1 μM): 35 % Ctrl; % Ctrl, RET (kinases [4]; target RET; 1 μM): 4.2 % Ctrl; % Ctrl, ABL1(F317I)-nonphosphorylated (kinases [5]; target ABL1(F317I)-nonphosphorylated; 1 μM): 66 % Ctrl; % Ctrl, ABL1(F317I)-phosphorylated (kinases [5]; target ABL1(F317I)-phosphorylated; 1 μM): 41 % Ctrl; % Ctrl, EGFR(G719C) (kinases [6]; target EGFR(G719C); 1 μM): 68 % Ctrl; % Ctrl, ABL1-nonphosphorylated (kinases [7]; target ABL1-nonphosphorylated; 1 μM): 10 % Ctrl; % Ctrl, ABL1-phosphorylated (kinases [7]; target ABL1-phosphorylated; 1 μM): 6 % Ctrl; % Ctrl, EGFR(L858R) (kinases [8]; target EGFR(L858R); 1 μM): 88 % Ctrl; % Ctrl, KIT(D816V) (kinases [9]; target KIT(D816V); 1 μM): 1.3 % Ctrl; % Ctrl, KIT(V559D, V654A) (kinases [10]; target KIT(V559D, V654A); 1 μM): 22 % Ctrl; % Ctrl, ABL1(Q252H)-nonphosphorylated (kinases [11]; target ABL1(Q252H)-nonphosphorylated; 1 μM): 2.8 % Ctrl; % Ctrl, ABL1(Q252H)-phosphorylated (kinases [11]; target ABL1(Q252H)-phosphorylated; 1 μM): 1.7 % Ctrl"
,,,,,,,,,,,,,,"Cc1cc2c([nH]1)/C=C1\C(=O)Nc3cc(Cl)c(cc31)SCCOCCN(C)C2=O [Ex. 169, [16a(17)Z]-19-chloro-5-methyl-6,7,9,10-tetrahydro-1H-12,14-(ethanediylidene)dipyrrolo[3,4-g:2′,3′-j][1,4,13]oxathiazacyclopentadecine-4,16(5H,15H)-dione]","% Ctrl, FLT3(D835V) (kinases [1]; 1 μM; target FLT3(D835V)): 0 % Ctrl; % Ctrl, EGFR(E746-A750del) (kinases [2]; 1 μM; target EGFR(E746-A750del)): 9.9 % Ctrl; % Ctrl, EGFR(L858R, T790M) (kinases [3]; 1 μM; target EGFR(L858R, T790M)): 37 % Ctrl; % Ctrl, RET (kinases [4]; 1 μM; target RET): 0 % Ctrl; % Ctrl, ABL1(F317I)-nonphosphorylated (kinases [5]; 1 μM; target ABL1(F317I)-nonphosphorylated): 0.6 % Ctrl; % Ctrl, ABL1(F317I)-phosphorylated (kinases [5]; 1 μM; target ABL1(F317I)-phosphorylated): 5 % Ctrl; % Ctrl, EGFR(G719C) (kinases [6]; 1 μM; target EGFR(G719C)): 100 % Ctrl; % Ctrl, ABL1-nonphosphorylated (kinases [7]; 1 μM; target ABL1-nonphosphorylated): 0 % Ctrl; % Ctrl, ABL1-phosphorylated (kinases [7]; 1 μM; target ABL1-phosphorylated): 0 % Ctrl; % Ctrl, EGFR(L858R) (kinases [8]; 1 μM; target EGFR(L858R)): 52 % Ctrl; % Ctrl, KIT(D816V) (kinases [9]; 1 μM; target KIT(D816V)): 1.6 % Ctrl; % Ctrl, KIT(V559D, V654A) (kinases [10]; 1 μM; target KIT(V559D, V654A)): 13 % Ctrl; % Ctrl, ABL1(Q252H)-nonphosphorylated (kinases [11]; 1 μM; target ABL1(Q252H)-nonphosphorylated): 0 % Ctrl; % Ctrl, ABL1(Q252H)-phosphorylated (kinases [11]; 1 μM; target ABL1(Q252H)-phosphorylated): 0.3 % Ctrl"
17 % Ctrl,100 % Ctrl,98 % Ctrl,100 % Ctrl,94 % Ctrl,100 % Ctrl,100 % Ctrl,84 % Ctrl,91 % Ctrl,100 % Ctrl,93 % Ctrl,98 % Ctrl,87 % Ctrl,86 % Ctrl,"Cc1cc2c([nH]1)/C=C1\C(=O)Nc3ccc(cc31)OCCOCCNC2=O [Ex. 129, [16a(17)Z]-2-methyl-6,7,9,10-tetrahydro-1H-12,14-(ethanediylidene)dipyrrolo[3,2-i:3′,4′-l][1,4,7]dioxazacyclopentadecine-4,16(5H,15H)-dione]",
2 % Ctrl,76 % Ctrl,93 % Ctrl,23 % Ctrl,78 % Ctrl,66 % Ctrl,90 % Ctrl,36 % Ctrl,25 % Ctrl,90 % Ctrl,36 % Ctrl,54 % Ctrl,24 % Ctrl,14 % Ctrl,"Cc1cc2c([nH]1)/C=C1\C(=O)Nc3cc(Cl)c(cc31)OCCO[C@@H](C(=O)N[C@@H]1CCNC1)CN(C)C2=O [Ex. 136, [7R,16a(17)Z]-19-chloro-2,5-dimethyl-4,16-dioxo-N-[(3R)-pyrrolidin-3-yl]-4,5,6,7,9,10,15,16-octahydro-1H-12,14-(ethanediylidene)dipyrrolo[3,2-i:3′,4′-l][1,4,7]dioxazacyclopentadecine-7-carboxamide]",
